Measurements reported in patent EP4707280A1, “1,4-CINEOLE DERIVATIVE AND INTERMEDIATE THEREOF, HERBICIDE CONTAINING SAID DERIVATIVE AS ACTIVE INGREDIENT, METHOD FOR USING HERBICIDE, AND METHOD FOR PREPARING AGROCHEMICAL COMPOSITION” (HOKKO CHEMICAL INDUSTRY CO., LTD., priority 2023, dated 2024).

Key:
Format in all cases: in vivo
[1] = test system: Echinochloa crus-galli var. formosensis; assay: Test Example 6: herbicidal effect test by application during growth period of paddy rice (low dose); details: Echinochloa crus-galli; 7.5 g per 10 ares; applied seven days after sowing, flooded pots; 14 days after application; read-out: weed inhibition rate
How it was run: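 Low-dose water application, 7.5 g a.i. per 10 ares, given by dropper into flooded pots (about 3 cm depth) 7 days after sowing of 30 weed seeds each at 0–1 cm. Evaluation of inhibition (%) took place 14 days later, duplicate per rate.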

[2] = test system: Echinochloa crus-galli var. formosensis; assay: Test Example 5: herbicidal effect test by soil application in paddy rice (low dose); details: Echinochloa crus-galli, soil, 336 h; 7.5 g per 10 ares; applied immediately after sowing, flooded pots; 14 days after application; read-out: weed inhibition rate
How it was run: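 Paddy-soil pots, weeds sown 0–1 cm deep and flooded to about 3 cm in a greenhouse. Emulsifiable concentrate diluted in water and dropped in right after sowing at 7.5 g active ingredient per 10 ares. Duplicates; effect scored 14 days after application.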

Digitaria ciliaris [3] = assay: Test Example 8: herbicidal effect test by stem and leaf treatment in upland field (low dose); details: Digitaria ciliaris; 7.5 g per 10 ares; sprayed seven days after sowing, upland soil; 14 days after application; read-out: weed inhibition rate
Description: (§1) The present test was conducted in duplicate for each chemical concentration group, and the weed inhibition rate (%) was determined 14 days after chemical application using the following formula (Math. 1). [formula]
(§2) Pots with an area of 36 cm^2 were filled with upland soil (alluvial loam), twenty seeds each of weeds of Digitaria ciliaris, and Echinochloa crus-galli were uniformly mixed with the top 1 cm layer of soil and the surface was lightly pressed down. Seven days after sowing, an emulsifiable concentrate prepared according to Formulation Example 5 using the compound shown below was diluted with water, and the diluted solution was sprayed onto the soil surface at a rate of 100 liters per 10 ares. The amount of the active ingredient to be applied was equivalent to 7.5 g per 10 ares. Fourteen days after chemical application, the herbicidal effect was evaluated according to the same criteria as in Test Example 1.

Echinochloa crus-galli [4] = assay: as above; details: Echinochloa crus-galli; 7.5 g per 10 ares; sprayed seven days after sowing, upland soil; 14 days after application; read-out: weed inhibition rate
Description: as §1, §2

Digitaria ciliaris [5] = assay: Test Example 4: herbicidal effect test by stem and leaf treatment in upland field; details: Digitaria ciliaris; 120 g per 10 ares; sprayed seven days after sowing, upland soil; 14 days after application; read-out: weed inhibition rate
Scirpus juncoides [6] = assay: Test Example 1: herbicidal effect test by soil application in paddy rice; details: Schoenoplectiella juncoides, soil, 336 h; 120 g active ingredient per 10 ares; applied immediately after sowing, flooded pots; 14 days after application; read-out: weed inhibition rate
How it was run: (§3)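 Weeds sown 0–1 cm deep (30 seeds each) into fertilized, puddled paddy soil in Wagner pots. Pots are flooded immediately, water held near 3 cm, and the diluted emulsifiable concentrate is dripped in at once, delivering 120 g active ingredient per 10 ares under glass-greenhouse management.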

[7] = test system: Echinochloa crus-galli var. formosensis; assay: as above; details: Echinochloa crus-galli, soil, 336 h; 120 g active ingredient per 10 ares; applied immediately after sowing, flooded pots; 14 days after application; read-out: weed inhibition rate
How it was run: as §3

Digitaria ciliaris [8] = assay: Test Example 3: herbicidal effect test by soil application in upland field; details: Digitaria ciliaris, 120 g per 10 ares, sprayed one day after sowing, 14 days after application, read-out: weed inhibition rate
How it was run: (§4)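 Pre-emergence test: seeds mixed into top 1 cm of alluvial loam upland soil in pots; emulsifiable concentrate diluted in water sprayed on soil one day after sowing at 100 L/10 a, 120 g a.i./10 a. Weed inhibition rate (%) scored at 14 days, in duplicate.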

Echinochloa crus-galli [9] = assay: as above; details: Echinochloa crus-galli, 120 g per 10 ares, sprayed one day after sowing, 14 days after application, read-out: weed inhibition rate
How it was run: as §4

Echinochloa crus-galli [10] = assay: Test Example 4: herbicidal effect test by stem and leaf treatment in upland field; details: Echinochloa crus-galli; 120 g per 10 ares; sprayed seven days after sowing, upland soil; 14 days after application; read-out: weed inhibition rate
Digitaria ciliaris [11] = assay: Test Example 7: herbicidal effect test by soil application in upland field (low dose); details: Digitaria ciliaris, 7.5 g per 10 ares, sprayed one day after sowing, 14 days after application, read-out: weed inhibition rate
Description: as §1
as §2, with “One day” for “Seven days”

Echinochloa crus-galli [12] = assay: as above; details: Echinochloa crus-galli, 7.5 g per 10 ares, sprayed one day after sowing, 14 days after application, read-out: weed inhibition rate
Description: as §1
as §2, with “One day” for “Seven days”

Scirpus juncoides [13] = assay: Test Example 2: herbicidal effect test by application during growth period of paddy rice; details: Schoenoplectiella juncoides; 120 g per 10 ares; applied seven days after sowing, flooded pots; 14 days after application; read-out: weed inhibition rate
How it was run: (§5)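 Paddy soil in flooded pots (water depth about 3 cm) was sown with weed seeds and kept in a glass greenhouse. Seven days after sowing, a diluted emulsifiable concentrate was applied by dropper at 120 g active ingredient per 10 ares. Weed inhibition was evaluated 14 days after application, in duplicate.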

[14] = test system: Echinochloa crus-galli var. formosensis; assay: as above; details: Echinochloa crus-galli; 120 g per 10 ares; applied seven days after sowing, flooded pots; 14 days after application; read-out: weed inhibition rate
How it was run: as §5

CC(C)=CCOC1CC2(C(C)C)OC1(C)CC2I (stereo not shown) [1-1400, 5-iodo-1-methyl-2-(3-methylbut-2-enoxy)-4-isopropyl-7-oxabicyclo[2.2.1]heptane]
≥ 80%: inhibition at 75 g/ha [1] | inhibition at 75 g/ha [2] | inhibition at 75 g/ha (Digitaria ciliaris [3]) | inhibition at 75 g/ha (Echinochloa crus-galli [4]) | inhibition at 1200 g/ha (Digitaria ciliaris [5]) | pest or weed control at 1200 g/ha (Scirpus juncoides [6]) | pest or weed control at 1200 g/ha [7] | inhibition at 1200 g/ha (Digitaria ciliaris [8]) | inhibition at 1200 g/ha (Echinochloa crus-galli [9]) | inhibition at 1200 g/ha (Echinochloa crus-galli [10]) | inhibition at 75 g/ha (Digitaria ciliaris [11]) | inhibition at 75 g/ha (Echinochloa crus-galli [12]) | inhibition at 1200 g/ha (Scirpus juncoides [13]) | inhibition at 1200 g/ha [14]

CC(C)[C@@]12C[C@H](OCc3c(F)cccc3F)[C@@](C)(C[C@H]1I)O2 [1-1119, (1R,2S,4S,5R)-2-[(2,6-difluorophenyl)methoxy]-5-iodo-1-methyl-4-isopropyl-7-oxabicyclo[2.2.1]heptane]
≥ 80%: inhibition at 75 g/ha [1] | inhibition at 75 g/ha [2] | inhibition at 75 g/ha (Digitaria ciliaris [3]) | inhibition at 75 g/ha (Echinochloa crus-galli [4]) | inhibition at 1200 g/ha (Digitaria ciliaris [5]) | pest or weed control at 1200 g/ha (Scirpus juncoides [6]) | pest or weed control at 1200 g/ha [7] | inhibition at 1200 g/ha (Digitaria ciliaris [8]) | inhibition at 1200 g/ha (Echinochloa crus-galli [9]) | inhibition at 1200 g/ha (Echinochloa crus-galli [10]) | inhibition at 75 g/ha (Digitaria ciliaris [11]) | inhibition at 75 g/ha (Echinochloa crus-galli [12]) | inhibition at 1200 g/ha (Scirpus juncoides [13]) | inhibition at 1200 g/ha [14]

CC(C)C12CC(OCc3ccccc3I)C(C)(CC1I)O2 (stereo not shown) [1-1430, 2-iodo-5-[(2-iodophenyl)methoxy]-1-isopropyl-4-methyl-7-oxabicyclo[2.2.1]heptane]
≥ 80%: inhibition at 75 g/ha [1] | inhibition at 75 g/ha [2] | inhibition at 75 g/ha (Digitaria ciliaris [3]) | inhibition at 75 g/ha (Echinochloa crus-galli [4]) | pest or weed control at 1200 g/ha (Scirpus juncoides [6]) | pest or weed control at 1200 g/ha [7] | inhibition at 1200 g/ha (Digitaria ciliaris [8]) | inhibition at 1200 g/ha (Echinochloa crus-galli [9]) | inhibition at 1200 g/ha (Echinochloa crus-galli [10]) | inhibition at 75 g/ha (Digitaria ciliaris [11]) | inhibition at 75 g/ha (Echinochloa crus-galli [12]) | inhibition at 1200 g/ha (Scirpus juncoides [13]) | inhibition at 1200 g/ha [14]

CC(C)[C@]12C[C@@H](OCc3ccc(F)cc3F)[C@](C)(CC1=O)O2 [2-16, (1R,4S,5R)-5-((2,4-difluorobenzyl)oxy)-1-isopropyl-4-methyl-7-oxabicyclo[2.2.1]heptan-2-one]
≥ 80%: inhibition at 75 g/ha [1] | inhibition at 75 g/ha [2] | inhibition at 75 g/ha (Digitaria ciliaris [3]) | inhibition at 75 g/ha (Echinochloa crus-galli [4]) | inhibition at 1200 g/ha (Digitaria ciliaris [5]) | pest or weed control at 1200 g/ha (Scirpus juncoides [6]) | pest or weed control at 1200 g/ha [7] | inhibition at 1200 g/ha (Digitaria ciliaris [8]) | inhibition at 1200 g/ha (Echinochloa crus-galli [9]) | inhibition at 1200 g/ha (Echinochloa crus-galli [10]) | inhibition at 75 g/ha (Digitaria ciliaris [11]) | inhibition at 75 g/ha (Echinochloa crus-galli [12]) | inhibition at 1200 g/ha [14]

CC(C)C12CC(OCc3c(F)cccc3Cl)C(C)(CC1Br)O2 (stereo not shown) [1-1381, 5-bromo-2-[(2-chloro-6-fluorophenyl)methoxy]-1-methyl-4-isopropyl-7-oxabicyclo[2.2.1]heptane]
≥ 80%: inhibition at 75 g/ha [1] | inhibition at 75 g/ha [2] | inhibition at 75 g/ha (Digitaria ciliaris [3]) | inhibition at 75 g/ha (Echinochloa crus-galli [4]) | inhibition at 1200 g/ha (Digitaria ciliaris [5]) | pest or weed control at 1200 g/ha [7] | inhibition at 1200 g/ha (Digitaria ciliaris [8]) | inhibition at 1200 g/ha (Echinochloa crus-galli [9]) | inhibition at 1200 g/ha (Echinochloa crus-galli [10]) | inhibition at 75 g/ha (Digitaria ciliaris [11]) | inhibition at 75 g/ha (Echinochloa crus-galli [12]) | inhibition at 1200 g/ha [14]

CCc1ccccc1CO[C@@H]1C[C@]2(C(C)C)O[C@@]1(C)C[C@@H]2Br [1-682, (1S,2R,4R,5S)-5-bromo-2-[(2-ethylphenyl)methoxy]-1-methyl-4-isopropyl-7-oxabicyclo[2.2.1]heptane]
≥ 80%: inhibition at 75 g/ha [1] | inhibition at 75 g/ha [2] | inhibition at 75 g/ha (Digitaria ciliaris [3]) | inhibition at 75 g/ha (Echinochloa crus-galli [4]) | inhibition at 1200 g/ha (Digitaria ciliaris [5]) | pest or weed control at 1200 g/ha [7] | inhibition at 1200 g/ha (Digitaria ciliaris [8]) | inhibition at 1200 g/ha (Echinochloa crus-galli [9]) | inhibition at 1200 g/ha (Echinochloa crus-galli [10]) | inhibition at 75 g/ha (Digitaria ciliaris [11]) | inhibition at 75 g/ha (Echinochloa crus-galli [12]) | inhibition at 1200 g/ha [14]

Cc1ccccc1COC1CC2(C(C)C)C=CC1(C)O2 (stereo not shown) [3-753, 4-methyl-5-[(2-methylphenyl)methoxy]-1-isopropyl-7-oxabicyclo[2.2.1]hept-2-ene]
≥ 80%: inhibition at 75 g/ha [1] | inhibition at 75 g/ha [2] | inhibition at 75 g/ha (Digitaria ciliaris [3]) | inhibition at 75 g/ha (Echinochloa crus-galli [4]) | pest or weed control at 1200 g/ha (Scirpus juncoides [6]) | pest or weed control at 1200 g/ha [7] | inhibition at 1200 g/ha (Digitaria ciliaris [8]) | inhibition at 1200 g/ha (Echinochloa crus-galli [9]) | inhibition at 1200 g/ha (Echinochloa crus-galli [10]) | inhibition at 75 g/ha (Digitaria ciliaris [11]) | inhibition at 75 g/ha (Echinochloa crus-galli [12]) | inhibition at 1200 g/ha (Scirpus juncoides [13]) | inhibition at 1200 g/ha [14]

CC(C)C12CC(OCc3ccccc3Cl)C(C)(CC1Br)O2 (stereo not shown) [1-1358, 5-bromo-2-[(2-chlorophenyl)methoxy]-1-methyl-4-isopropyl-7-oxabicyclo[2.2.1]heptane]
≥ 80%: inhibition at 75 g/ha [1] | inhibition at 75 g/ha [2] | inhibition at 75 g/ha (Digitaria ciliaris [3]) | inhibition at 75 g/ha (Echinochloa crus-galli [4]) | inhibition at 1200 g/ha (Digitaria ciliaris [5]) | pest or weed control at 1200 g/ha [7] | inhibition at 1200 g/ha (Digitaria ciliaris [8]) | inhibition at 1200 g/ha (Echinochloa crus-galli [9]) | inhibition at 1200 g/ha (Echinochloa crus-galli [10]) | inhibition at 75 g/ha (Digitaria ciliaris [11]) | inhibition at 75 g/ha (Echinochloa crus-galli [12]) | inhibition at 1200 g/ha [14]

CC(C)C12CC(OCc3c(F)cccc3F)C(C)(CC1Br)O2 (stereo not shown) [1-1379, 5-bromo-2-[(2,6-difluorophenyl)methoxy]-1-methyl-4-isopropyl-7-oxabicyclo[2.2.1]heptane]
≥ 80%: inhibition at 75 g/ha [1] | inhibition at 75 g/ha [2] | inhibition at 75 g/ha (Digitaria ciliaris [3]) | inhibition at 75 g/ha (Echinochloa crus-galli [4]) | inhibition at 1200 g/ha (Digitaria ciliaris [5]) | pest or weed control at 1200 g/ha [7] | inhibition at 1200 g/ha (Digitaria ciliaris [8]) | inhibition at 1200 g/ha (Echinochloa crus-galli [9]) | inhibition at 1200 g/ha (Echinochloa crus-galli [10]) | inhibition at 75 g/ha (Digitaria ciliaris [11]) | inhibition at 75 g/ha (Echinochloa crus-galli [12]) | inhibition at 1200 g/ha [14]

CC(C)C12CC(OCc3ccc(F)cc3)C(C)(CC1Br)O2 (stereo not shown) [1-1357, 5-bromo-2-[(4-fluorophenyl)methoxy]-1-methyl-4-isopropyl-7-oxabicyclo[2.2.1]heptane]
≥ 80%: inhibition at 75 g/ha [1] | inhibition at 75 g/ha [2] | inhibition at 75 g/ha (Digitaria ciliaris [3]) | inhibition at 75 g/ha (Echinochloa crus-galli [4]) | inhibition at 1200 g/ha (Digitaria ciliaris [5]) | pest or weed control at 1200 g/ha [7] | inhibition at 1200 g/ha (Digitaria ciliaris [8]) | inhibition at 1200 g/ha (Echinochloa crus-galli [9]) | inhibition at 1200 g/ha (Echinochloa crus-galli [10]) | inhibition at 75 g/ha (Digitaria ciliaris [11]) | inhibition at 75 g/ha (Echinochloa crus-galli [12]) | inhibition at 1200 g/ha [14]
